Experimental data published in PubChem BioAssay AID328 (DTP/NCI, 2004).
Values joined by “and” are separate entries in the source; they are usually repeats but may differ in a detail not shown here. Equal values may be shown once. Toxic doses and inconclusive results are not listed.

Tested on: BDF1 mice, P388 leukemia ip, median survival T/C
Test: NCI In Vivo Anticancer Drug Screen. Data for tumor model P388 Leukemia (intraperitoneal) in B6D2F1 (BDF1) mice
Settings: endpoint: median survival time, higher = longer survival
Method in brief: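 Compound-treated tumour-bearing mice were compared with vehicle-treated controls. Survival was recorded, and the value is the treated-group measurement divided by the control-group measurement (T/C).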

[1] = dose: 25.0 mg/kg/injection, schedule: Q01DX009 (ip), vehicle: Klucel (hydroxypropylcellulose) (HPC)
[2] = dose: 50.0 mg/kg/injection, schedule: Q01DX009 (ip), vehicle: saline with Tween-80
[3] = dose: 100.0 mg/kg/injection, schedule: Q01DX009 (ip), vehicle: saline with Tween-80
[4] = dose: 100.0 mg/kg/injection, schedule: Q01DX001 (ip), vehicle: Klucel (hydroxypropylcellulose) (HPC)
[5] = dose: 200.0 mg/kg/injection, schedule: Q01DX001 (ip), vehicle: Klucel (hydroxypropylcellulose) (HPC)
[6] = dose: 12.5 mg/kg/injection, schedule: Q01DX009 (ip), vehicle: saline
[7] = dose: 50.0 mg/kg/injection, schedule: Q01DX009 (ip), vehicle: saline
[8] = dose: 50.0 mg/kg/injection, schedule: Q04DX003 (ip), vehicle: saline
[9] = dose: 100.0 mg/kg/injection, schedule: Q01DX009 (ip), vehicle: saline
[10] = dose: 100.0 mg/kg/injection, schedule: Q04DX003 (ip), vehicle: saline
[11] = dose: 200.0 mg/kg/injection, schedule: Q04DX003 (ip), vehicle: saline
[12] = dose: 400.0 mg/kg/injection, schedule: Q04DX003 (ip), vehicle: saline
[13] = dose: 25.0 mg/kg/injection, schedule: Q04DX003 (ip), vehicle: saline
[14] = dose: 50.0 mg/kg/injection, schedule: Q04DX003 (ip), vehicle: saline with Tween-80
[15] = dose: 100.0 mg/kg/injection, schedule: Q04DX003 (ip), vehicle: saline with Tween-80
[16] = dose: 25.0 mg/kg/injection, schedule: Q01DX009 (ip), vehicle: saline
[17] = dose: 200.0 mg/kg/injection, schedule: Q01DX009 (ip), vehicle: saline with Tween-80
[18] = dose: 200.0 mg/kg/injection, schedule: Q04DX003 (ip), vehicle: saline with Tween-80
[19] = dose: 400.0 mg/kg/injection, schedule: Q01DX009 (ip), vehicle: saline with Tween-80
[20] = dose: 400.0 mg/kg/injection, schedule: Q04DX003 (ip), vehicle: saline with Tween-80

## COC(=O)C1C(O)C(C)C(O)C(C)C=C(C)C2=C3C(=C(C)C(=O)c4c(O)c(c(C)c(OC(C)=O)c43)NC(=O)C(C)=C/C=C\C(C)C(O)C(C)C1O)OCO2 (configuration not stated)
[1]
  T/C: 101 % of control
dose: 25.0 mg/kg/injection, schedule: Q01DX009 (ip), vehicle: saline with Tween-80
  T/C: 90 % of control
dose: 50.0 mg/kg/injection, schedule: Q01DX009 (ip), vehicle: Klucel (hydroxypropylcellulose) (HPC)
  T/C: 110 % of control and 97 % of control
[2]
  T/C: 109 % of control
dose: 100.0 mg/kg/injection, schedule: Q01DX009 (ip), vehicle: Klucel (hydroxypropylcellulose) (HPC)
  T/C: 101 % of control and 113 % of control
[3]
  T/C: 90 % of control

## COc1cc(C)c(Cl)c(C)c1C#CC(=O)O
[4]
  T/C: 115 % of control
[5]
  T/C: 111 % of control

## O=C(c1ccc([N+](=O)[O-])cc1)C(Br)C(Br)c1ccncc1 (configuration not stated)
dose: 50.0 mg/kg/injection, schedule: Q01DX001 (ip), vehicle: Klucel (hydroxypropylcellulose) (HPC)
  T/C: 105 % of control
[4]
  T/C: 110 % of control
dose: 100.0 mg/kg/injection, schedule: Q04DX003 (ip), vehicle: Klucel (hydroxypropylcellulose) (HPC)
  T/C: 113 % of control
[5]
  T/C: 115 % of control
dose: 200.0 mg/kg/injection, schedule: Q04DX003 (ip), vehicle: Klucel (hydroxypropylcellulose) (HPC)
  T/C: 113 % of control
dose: 400.0 mg/kg/injection, schedule: Q04DX003 (ip), vehicle: Klucel (hydroxypropylcellulose) (HPC)
  T/C: 113 % of control

## O=C(Nc1ccc(Nc2ccncc2)cc1)c1ccc(Nc2ccnc3ccc([N+](=O)[O-])cc23)cc1[N+](=O)[O-]
[6]
  T/C: 93 % of control
[7]
  T/C: 88 % of control
[8]
  T/C: 111 % of control
[9]
  T/C: 91 % of control
[10]
  T/C: 105 % of control
dose: 200.0 mg/kg/injection, schedule: Q01DX009 (ip), vehicle: saline
  T/C: 98 % of control
[11]
  T/C: 93 % of control
dose: 400.0 mg/kg/injection, schedule: Q01DX009 (ip), vehicle: saline
  T/C: 119 % of control
[12]
  T/C: 88 % of control

## CCN(CC)CCOC(=O)c1ccc([N+](=O)[O-])c2ccccc12
dose: 50.0 mg/kg/injection, schedule: Q01DX005 (ip), vehicle: saline with Tween-80
  T/C: 98 % of control
dose: 100.0 mg/kg/injection, schedule: Q01DX005 (ip), vehicle: saline with Tween-80
  T/C: 88 % of control
dose: 200.0 mg/kg/injection, schedule: Q01DX005 (ip), vehicle: saline with Tween-80
  T/C: 88 % of control

## CCNCc1ccc(OC)cc1
[13]
  T/C: 100 % of control
[8]
  T/C: 100 % of control
[10]
  T/C: 100 % of control

## CCC(CN(C)C)C(=O)c1ccccc1 (configuration not stated)
dose: 25.0 mg/kg/injection, schedule: Q04DX003 (ip), vehicle: saline with Tween-80
  T/C: 100 % of control
[14]
  T/C: 95 % of control
dose: 100.0 mg/kg/injection, schedule: Q01DX001 (ip), vehicle: saline with Tween-80
  T/C: 100 % of control
[15]
  T/C: 91 % of control and 95 % of control
dose: 200.0 mg/kg/injection, schedule: Q01DX001 (ip), vehicle: saline with Tween-80
  T/C: 100 % of control

## O=C(CCCc1ccc(N(CCCl)CCCl)cc1)Nc1ncccn1
dose: 2.0 mg/kg/injection, schedule: Q01DX009 (ip), vehicle: Klucel (hydroxypropylcellulose) (HPC)
  T/C: 88 % of control
dose: 3.0 mg/kg/injection, schedule: Q01DX009 (ip), vehicle: Klucel (hydroxypropylcellulose) (HPC)
  T/C: 115 % of control
dose: 6.0 mg/kg/injection, schedule: Q01DX009 (ip), vehicle: Klucel (hydroxypropylcellulose) (HPC)
  T/C: 152 % of control
dose: 8.0 mg/kg/injection, schedule: Q01DX009 (ip), vehicle: Klucel (hydroxypropylcellulose) (HPC)
  T/C: 188 % of control
dose: 18.0 mg/kg/injection, schedule: Q01DX009 (ip), vehicle: Klucel (hydroxypropylcellulose) (HPC)
  T/C: 112 % of control
[1]
  T/C: 92 % of control

## O=[P+](O)C(O)c1ccccc1 (configuration not stated)
[10]
  T/C: 100 % of control
[11]
  T/C: 108 % of control
[12]
  T/C: 91 % of control

## CC(=O)[O][Pb]([CH2]CC(C)C)([CH2]CC(C)C)[CH2]CC(C)C
dose: 0.19 mg/kg/injection, schedule: Q01DX009 (ip), vehicle: saline with Tween-80
  T/C: 123 % of control
dose: 0.38 mg/kg/injection, schedule: Q01DX009 (ip), vehicle: Klucel (hydroxypropylcellulose) (HPC)
  T/C: 94 % of control
dose: 0.38 mg/kg/injection, schedule: Q01DX009 (ip), vehicle: saline with Tween-80
  T/C: 111 % of control
dose: 0.75 mg/kg/injection, schedule: Q01DX009 (ip), vehicle: Klucel (hydroxypropylcellulose) (HPC)
  T/C: 105 % of control
dose: 0.75 mg/kg/injection, schedule: Q01DX009 (ip), vehicle: saline with Tween-80
  T/C: 106 % of control

## Cc1nccnc1N
dose: 6.25 mg/kg/injection, schedule: Q01DX009 (ip), vehicle: saline
  T/C: 94 % of control
[6]
  T/C: 105 % of control
[16]
  T/C: 102 % of control
[7]
  T/C: 102 % of control
[8]
  T/C: 94 % of control
[9]
  T/C: 105 % of control
[10]
  T/C: 98 % of control and 102 % of control
dose: 150.0 mg/kg/injection, schedule: Q04DX003 (ip), vehicle: saline
  T/C: 88 % of control
[11]
  T/C: 100 % of control and 124 % of control
dose: 300.0 mg/kg/injection, schedule: Q04DX003 (ip), vehicle: saline
  T/C: 100 % of control

## CCSC(C)C
[10]
  T/C: 100 % of control
[11]
  T/C: 104 % of control
[12]
  T/C: 95 % of control

## NC(c1ccccc1)C(N)c1ccccc1 (configuration not stated)
[15]
  T/C: 95 % of control

## CCC12C=CCN3CCC4(c5cc(C(c6ccc(OC)cc6)c6cc7ccccc7[nH]6)c(OC)cc5N(C)C4C(O)(CO)C1O)C32 (configuration not stated)
dose: 2.0 mg/kg/injection, schedule: Q01DX009 (ip), vehicle: saline
  T/C: 104 % of control
dose: 4.0 mg/kg/injection, schedule: Q01DX009 (ip), vehicle: saline
  T/C: 98 % of control
dose: 8.0 mg/kg/injection, schedule: Q01DX009 (ip), vehicle: saline
  T/C: 95 % of control
dose: 16.0 mg/kg/injection, schedule: Q01DX009 (ip), vehicle: saline
  T/C: 98 % of control
dose: 32.0 mg/kg/injection, schedule: Q01DX009 (ip), vehicle: saline
  T/C: 104 % of control

## COc1ncnc2nc[nH]c12
[3]
  T/C: 95 % of control
[15]
  T/C: 100 % of control
[17]
  T/C: 91 % of control
[18]
  T/C: 109 % of control
[19]
  T/C: 86 % of control
[20]
  T/C: 95 % of control

## C=CCC#N
[6]
  T/C: 95 % of control
[16]
  T/C: 95 % of control
[13]
  T/C: 100 % of control
[8]
  T/C: 95 % of control

## CC1(C#N)CCC2c3ccccc3CCC2C1=O (configuration not stated)
[10]
  T/C: 100 % of control
[11]
  T/C: 100 % of control
[12]
  T/C: 100 % of control

## CCCCCCOC(CN(C)C)C(Cl)(Cl)Cl (configuration not stated)
[2]
  T/C: 124 % of control
[3]
  T/C: 107 % of control
[17]
  T/C: 116 % of control

## CN=C(N)c1ccc(N=C(N)c2ccc(N=C(N)c3ccc(C(N)=NC)cc3)cc2)cc1
dose: 10.0 mg/kg/injection, schedule: Q04DX003 (ip), vehicle: saline
  T/C: 104 % of control
dose: 20.0 mg/kg/injection, schedule: Q04DX003 (ip), vehicle: saline
  T/C: 104 % of control
dose: 40.0 mg/kg/injection, schedule: Q04DX003 (ip), vehicle: saline
  T/C: 116 % of control

## COc1ccc(C(=O)C[N+](=O)[O-])cc1
[3]
  T/C: 110 % of control
[17]
  T/C: 100 % of control
[19]
  T/C: 100 % of control

## CCCNC(=O)Nc1ccc(C)cc1C
[15]
  T/C: 100 % of control
[18]
  T/C: 95 % of control
[20]
  T/C: 100 % of control

## O=C(OCCCl)c1ccc(Cl)cc1
[14]
  T/C: 108 % of control
[15]
  T/C: 100 % of control
[18]
  T/C: 94 % of control
[20]
  T/C: 94 % of control

## O=C(Nc1ccc(NC2=NCCN2)cc1)c1cccc(C(=O)Nc2ccc(NC3=NCCN3)cc2)c1
dose: 5.0 mg/kg/injection, schedule: Q01DX009 (ip), vehicle: saline with Tween-80
  T/C: 116 % of control
dose: 5.0 mg/kg/injection, schedule: Q04DX003 (ip), vehicle: saline with Tween-80
  T/C: 100 % of control
dose: 10.0 mg/kg/injection, schedule: Q04DX003 (ip), vehicle: saline with Tween-80
  T/C: 100 % of control
dose: 13.0 mg/kg/injection, schedule: Q01DX009 (ip), vehicle: saline with Tween-80
  T/C: 150 % of control
dose: 20.0 mg/kg/injection, schedule: Q04DX003 (ip), vehicle: saline with Tween-80
  T/C: 122 % of control
dose: 30.0 mg/kg/injection, schedule: Q01DX009 (ip), vehicle: saline with Tween-80
  T/C: 122 % of control
